# From patent US20110311562A1, “Glycolipid Mixture with Anti-Inflammatory Activity Obtained from Oscillatoria Planktothrix” (priority 2009, published 2011)
# Biological target: T1, membrane ATP synthase (Homo sapiens, UniProt P06576+P25705+P36542)
# T1 construct: Measurement of the effect of OPFP1 on the production of extracellular ATP in the SH-SY5Y cell line; endogenous in cells; host or cells: SH-SY5Y human neuroblastoma cells
# Assay: Production of extracellular ATP in SH-SY5Y cell line
# Type: cell-based
# Settings: after 5′ pre-incubation, OPFP1 mixture 10 μg/ml, piceatannol 4 μM, read-out: maximum inhibition of ATP synthesis
# Procedure: FIG. 6. Production of extracellular ATP. Measurement of the effect of OPFP1 on the production of extracellular ATP in the SH-SY5Y cell line. (A) analysis of the effects on ATP production at different pre-incubation times; (B) evaluation of the effects elicited by different concentrations of the OPFP1 mixture (results are the mean of three independent experiments).
# The mixture not only binds this enzyme complex but also modulates its activity. As positive control, piceatannol (3,4,3′,5′-tetrahydroxy-trans-stilbene) was used, that is a resveratrol metabolite well-known for its inhibitory activity on the production of extracellular ATP.
smiles,measurement,value
"Oc1cc(O)cc(/C=C/c2ccc(O)c(O)c2)c1 [piceatannol, 3,4,3′,5′-tetrahydroxy-trans-stilbene]",inhibition at 4 µM,97%
